This note sets out measurements from US6476059B1, “Use of polycyclic 2-aminothiazole systems for the treatment of obesity” (Aventis Pharma Deutschland GmbH, priority 1999, dated 2002).

Where only a bound is given, the exact number is not on record here.

The test system of one data set is male NMRI mice. In words: Anorectic effect: cumulative condensed milk consumption after gavage. It is filed as in vivo. The conditions noted are these: oral dose 50 mg/kg by gavage, feed withdrawn for 24 hours; for Reduction in the cumulative milk consumption as % of the controls: compared with untreated control animals; for cumulative milk consumption by the treated animals: condensed milk offered 30 minutes after administration, consumption determined every half hour for 7 hours. The method, then:
The anorectic effect was tested on male NMRI mice. After withdrawal of feed for 24 hours, the test product was administered by gavage. The animals were housed singly and had free access to drinking water and, 30 minutes after administration of the product, they were offered condensed milk. The consumption of condensed milk was determined, and the general behavior of the animals was inspected, every half hour for 7 hours. The measured milk consumption was compared with that of untreated control animals.

For orientation: melting point means the temperature of the solid-liquid transition.

Molecule `CS(=O)(=O)c1ccc2c(c1)-c1nc(N)sc1C2.Cl` had a melting point greater than 230 °C.
The molecule `Br.CN(C)c1nc2c(s1)Cc1cc(C#N)ccc1-2` [Example 2, 2-Dimethylamino-8H-indeno[1,2-d]thiazole-6-carbonitrile hydrobromide] returned a melting point greater than 300 °C. Besides, in the data set with male NMRI mice, the “Reduction in the cumulative milk consumption as % of the controls” value (“Reduction … as % of the controls” for short) amounted to 85% and the “cumulative milk consumption by the treated animals” value is on record as 5/0.76 ml.
Molecule `N#CNc1nc2c(s1)Cc1cc(Cl)ccc1-2` [Example 4, 6-Chloro-8H-indeno[1,2-d]thiazol-2-yl-cyanamide] had a melting point of 225 °C.
For the molecule `O=CNc1nc2c(s1)Cc1cc(Cl)ccc1-2` [Example 6, N-(6-chloro-8H-indeno[1,2-d]thiazol-2-yl)formamide], the melting point was found to be 295 °C. Besides, in the data set on male NMRI mice, the “Reduction … as % of the controls” value amounted to 77% and the “cumulative milk consumption by the treated animals” value is 5/0.96 ml.
Molecule `N=C(Nc1ccccc1)Nc1nc2c(s1)Cc1cc(Cl)ccc1-2` [Example 7, N-(6-Chloro-8H-indeno[1,2-d]thiazol-2-yl)-N′-phenylguanidine] had a melting point of 210 °C.
In the case of `CNc1nc2c(s1)Cc1cc(OCC(F)(F)C(F)(F)F)ccc1-2.Cl` [Example 18, Methyl[6-(2,2,3,3,3-pentafluoropropoxy)-8H-indeno[1,2-d]thiazol-2-yl]amine hydrochloride], the melting point stood at 258 °C. In the data set with male NMRI mice, the “Reduction … as % of the controls” value is on record as 90% and the “cumulative milk consumption by the treated animals” value is recorded as 5/0.38 ml.
As to `CNc1nc2c(s1)Cc1cc(-c3cccnc3)ccc1-2.Cl` [Example 26, Methyl(6-pyridin-3-yl-8H-indeno[1,2-d]thiazol-2-yl)amine hydrochloride], the melting point came out at 225 °C. In the data set on male NMRI mice, the “Reduction … as % of the controls” value was determined as 77% and the “cumulative milk consumption by the treated animals” value is 5/0.68 ml.
As for `Cc1cccc(Oc2ccc3c(c2)Cc2sc(N)nc2-3)c1.Cl` [Example 27, 6-m-Tolyloxy-8H-indeno[1,2-d]thiazol-2-yl-amine hydrochloride], the melting point amounted to 174 °C. For the same molecule, in the data set with male NMRI mice, the “Reduction … as % of the controls” value was found to be 79% and the “cumulative milk consumption by the treated animals” value was 5/0.74 ml.
